Assay results taken from ChEMBL document CHEMBL2010733, “Amphilectane diterpenes from Salvia sclarea: biosynthetic considerations” (J Nat Prod, 2012).
Activity calls are given as the source filed them. The rule behind the calls is not given here.

Tested on: Radical scavenging activity
Assay: Antioxidant activity assessed as DPPH radical scavenging activity
Assay type: functional

SMILES	Activity
CC(C)=C[C@H]1C=C(C)[C@@H]2CC[C@H](C)[C@@]23CCC(C)=C[C@@H]13 (relative stereo)	inactive
CC(C)=C[C@H]1C=C(C)[C@H]2CC[C@H](C)[C@@H]3CC=C(C)[C@@H]1[C@@H]32 (relative stereo)	inactive
